From patent EP4647069A1, “DRUGS AND COMPOSITIONS FOR USE IN THE TREATMENT OF RETT SYNDROME” (UNIVERSITA' DEGLI STUDI DI TRIESTE, priority 2024, dated 2025)

What was measured:
[1] = system: MeCP2-KO mouse hippocampal neurons; assay: Phenotypic neuronal atrophy screening in miniaturized 96-well cultures, treatment DIV 3 to DIV 6 (MAP2/NeuN, NeuriteQuant); format: cell-based; settings: for total dendritic length (TDL) / terminal branches (EP): individually or in combination; for minimal effective concentration: Mus musculus, Hippocampal neuron, individual drugs, DIV 3 to DIV 6, read-out: minimum effective concentration in the in vitro assays
Description: Three morphological parameters were measured: 1) the area of the neuronal cell body (soma), 2) the total dendritic length (TDL), 3) the number of dendritic endpoints (EP).
The Kruskall-Wallis test was also performed in this phase, in order to compare non-parametric data between more than two groups: *p <0.05, **p<0.01, ***p<0.001.
To quantify the effects of the interactions, the same morphological parameters used to test the individual drugs at DIV 6 were measured, namely total dendritic length (TDL) and the number of terminal branches (EP = Endpoints).

[2] = in vivo; cited from earlier work

| SMILES | total dendritic length (TDL) ([1]; 0.1 µM, DIV 3 to DIV 6 (fig. 6A, 6B)) | terminal branches (EP) ([1]; 0.1 µM, DIV 3 to DIV 6 (fig. 6C, 6D)) | minimal effective concentration [1] [µM] | total dendritic length (TDL) ([1]; 1 µM, DIV 3 to DIV 6 (fig. 5A, 5B)) | terminal branches (EP) ([1]; 1 µM, DIV 3 to DIV 6 (fig. 5C, 5D)) | capabilities to penetrate the blood-brain barrier [2] | half-life [2] [h] |
| --- | --- | --- | --- | --- | --- | --- | --- |
| O=c1[nH]c(=O)n([C@H]2C[C@H](O)[C@@H](CO)O2)cc1I [idoxuridine] | no positive effect | no positive effect | 10 |  |  |  |  |
| C=C1/C(=C\C=C2/CCC[C@]3(C)[C@@H]([C@H](C)/C=C/[C@@H](O)C4CC4)CC[C@@H]23)C[C@@H](O)C[C@@H]1O [calcipotriene] |  |  | 10 | no positive effect | no positive effect |  |  |
| Cc1ccc(C(=O)c2cc(O)c(O)c([N+](=O)[O-])c2)cc1 [tolcapone] |  |  |  |  |  | excellent | 2.9 |
